Measurements published in ChEMBL document CHEMBL5465560, “Selectivity Literature for EUbOPEN Chemogenomic Library” (2024).

Legend:
[1] = target: Cyclin-dependent kinase 13 (Homo sapiens, UniProt Q14004); experiment: Selectivity interaction (KinomeScan (DiscoverX)) EUB0000092b CDK13; conditions: at 10 µM
[2] = target: Ribosomal protein S6 kinase alpha-2 (Homo sapiens) (UniProt Q15349); experiment: Selectivity interaction (KinomeScan (DiscoverX)) EUB0000655a RPS6KA2; conditions: at 10 µM
[3] = test system: Mast/stem cell growth factor receptor Kit (Homo sapiens), P10721 [V559D,T670I]; experiment: (§1) Selectivity interaction (KinomeScan (DiscoverX)) EUB0000655a KIT; conditions: at 10 µM
[4] = test system: Mast/stem cell growth factor receptor Kit (Homo sapiens), P10721 [D816H]; experiment: as §1; conditions: at 10 µM
[5] = test system: Mast/stem cell growth factor receptor Kit (Homo sapiens), P10721 [V559D]; experiment: as §1; conditions: at 10 µM
[6] = test system: Mast/stem cell growth factor receptor Kit (Homo sapiens), P10721 [D816V]; experiment: as §1; conditions: at 10 µM
[7] = target: Mast/stem cell growth factor receptor Kit (Homo sapiens, UniProt P10721); experiment: as §1; conditions: at 10 µM
[8] = test system: Mast/stem cell growth factor receptor Kit (Homo sapiens), P10721 [L576P]; experiment: as §1; conditions: at 10 µM
[9] = test system: Mast/stem cell growth factor receptor Kit (Homo sapiens), P10721 [V559D,V654A]; experiment: as §1; conditions: at 10 µM
[10] = test system: Mast/stem cell growth factor receptor Kit (Homo sapiens), P10721 [A829P]; experiment: as §1; conditions: at 10 µM
[11] = target: Phosphatidylinositol 4-kinase beta (Homo sapiens, UniProt Q9UBF8); experiment: Selectivity interaction (ProQinase) EUB0000171b PI4KB
[12] = target: Protein polybromo-1 (Homo sapiens) (UniProt Q86U86); experiment: Selectivity interaction (Human bromodomain panel (DSF assay)) EUB0000233b PBRM1
[13] = target: Citron Rho-interacting kinase (Homo sapiens) (UniProt O14578); experiment: Selectivity interaction (KinomeScan (DiscoverX)) EUB0000666a CIT; conditions: at 10 µM
[14] = target: Eukaryotic translation initiation factor 2-alpha kinase 1 (Homo sapiens) (UniProt Q9BQI3); conditions: at 10 µM
[15] = target: T1, Aurora kinase C (Homo sapiens) (UniProt Q9UQB9); experiment: Selectivity interaction (SelectScreen profiling (Invitrogen)) EUB0000607a AURKC; conditions: at 2 µM
T1 sequence (whole entry): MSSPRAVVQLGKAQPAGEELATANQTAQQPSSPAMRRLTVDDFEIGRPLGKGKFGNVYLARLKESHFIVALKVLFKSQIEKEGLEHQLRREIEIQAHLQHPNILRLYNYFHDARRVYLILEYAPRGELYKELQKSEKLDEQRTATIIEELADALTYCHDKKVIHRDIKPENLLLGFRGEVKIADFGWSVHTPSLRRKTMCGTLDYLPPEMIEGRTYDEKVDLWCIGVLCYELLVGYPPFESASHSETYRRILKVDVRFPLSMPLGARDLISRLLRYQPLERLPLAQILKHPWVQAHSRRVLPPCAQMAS

[16] = target: T2, Serine/threonine-protein kinase 3 (Homo sapiens) (UniProt Q13188); experiment: Selectivity interaction (SelectScreen profiling (Invitrogen)) EUB0000607a STK3; conditions: at 2 µM
T2 sequence (whole entry): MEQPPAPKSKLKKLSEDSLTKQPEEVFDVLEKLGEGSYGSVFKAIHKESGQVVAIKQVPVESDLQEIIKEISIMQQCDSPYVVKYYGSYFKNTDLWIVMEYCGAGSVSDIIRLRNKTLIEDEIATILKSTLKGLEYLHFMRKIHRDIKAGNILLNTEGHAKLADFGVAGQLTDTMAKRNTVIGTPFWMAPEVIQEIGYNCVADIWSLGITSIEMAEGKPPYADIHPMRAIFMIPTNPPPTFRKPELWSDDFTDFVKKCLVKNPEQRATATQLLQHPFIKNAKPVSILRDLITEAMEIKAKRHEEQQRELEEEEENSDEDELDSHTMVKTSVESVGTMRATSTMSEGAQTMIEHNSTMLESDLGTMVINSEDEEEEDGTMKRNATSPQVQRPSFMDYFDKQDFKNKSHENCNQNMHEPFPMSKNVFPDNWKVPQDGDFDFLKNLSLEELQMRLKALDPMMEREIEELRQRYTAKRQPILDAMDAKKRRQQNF

[17] = test system: Tyrosine-protein kinase ABL1 (Homo sapiens), P00519 [T315I]; experiment: Selectivity interaction (KinomeScan (DiscoverX)) EUB0000045b ABL1; conditions: at 1 µM
[18] = target: Angiopoietin-1 receptor (Homo sapiens) (UniProt Q02763); experiment: Selectivity interaction (KinomeScan (DiscoverX)) EUB0000618a TEK; conditions: at 10 µM
[19] = target: T3, Serine/threonine-protein kinase D2 (Homo sapiens) (UniProt Q9BZL6); experiment: Selectivity interaction (Ambit KINOMEscan and KiNATiv profiling in Jurkat cells) EUB0000090b PRKD2; assay type: cell-based; conditions: at 1 µM
T3 sequence (whole entry): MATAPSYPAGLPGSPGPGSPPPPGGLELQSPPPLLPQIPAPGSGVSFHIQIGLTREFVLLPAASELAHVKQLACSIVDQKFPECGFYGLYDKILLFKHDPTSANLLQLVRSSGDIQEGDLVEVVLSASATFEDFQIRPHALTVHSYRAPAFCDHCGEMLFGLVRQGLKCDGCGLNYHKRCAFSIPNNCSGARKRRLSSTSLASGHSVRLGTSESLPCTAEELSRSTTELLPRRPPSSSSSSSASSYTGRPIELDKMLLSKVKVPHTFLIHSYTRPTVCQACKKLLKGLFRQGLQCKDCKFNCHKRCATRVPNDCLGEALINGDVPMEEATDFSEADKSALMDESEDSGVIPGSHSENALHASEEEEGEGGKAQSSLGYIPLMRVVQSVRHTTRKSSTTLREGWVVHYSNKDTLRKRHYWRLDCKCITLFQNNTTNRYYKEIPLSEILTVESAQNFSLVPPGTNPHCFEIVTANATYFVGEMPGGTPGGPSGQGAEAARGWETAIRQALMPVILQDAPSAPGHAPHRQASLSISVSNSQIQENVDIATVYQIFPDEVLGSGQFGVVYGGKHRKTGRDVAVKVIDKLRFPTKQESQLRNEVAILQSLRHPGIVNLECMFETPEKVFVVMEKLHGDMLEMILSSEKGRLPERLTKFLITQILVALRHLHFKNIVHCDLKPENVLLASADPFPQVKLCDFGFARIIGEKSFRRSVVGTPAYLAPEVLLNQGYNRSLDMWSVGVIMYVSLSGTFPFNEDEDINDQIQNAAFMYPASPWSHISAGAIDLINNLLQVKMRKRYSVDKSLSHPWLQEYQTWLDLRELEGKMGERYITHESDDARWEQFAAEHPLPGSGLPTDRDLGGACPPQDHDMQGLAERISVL

Chain of Phosphatidylinositol 4-kinase beta (Q9UBF8 2-816 limits assumed): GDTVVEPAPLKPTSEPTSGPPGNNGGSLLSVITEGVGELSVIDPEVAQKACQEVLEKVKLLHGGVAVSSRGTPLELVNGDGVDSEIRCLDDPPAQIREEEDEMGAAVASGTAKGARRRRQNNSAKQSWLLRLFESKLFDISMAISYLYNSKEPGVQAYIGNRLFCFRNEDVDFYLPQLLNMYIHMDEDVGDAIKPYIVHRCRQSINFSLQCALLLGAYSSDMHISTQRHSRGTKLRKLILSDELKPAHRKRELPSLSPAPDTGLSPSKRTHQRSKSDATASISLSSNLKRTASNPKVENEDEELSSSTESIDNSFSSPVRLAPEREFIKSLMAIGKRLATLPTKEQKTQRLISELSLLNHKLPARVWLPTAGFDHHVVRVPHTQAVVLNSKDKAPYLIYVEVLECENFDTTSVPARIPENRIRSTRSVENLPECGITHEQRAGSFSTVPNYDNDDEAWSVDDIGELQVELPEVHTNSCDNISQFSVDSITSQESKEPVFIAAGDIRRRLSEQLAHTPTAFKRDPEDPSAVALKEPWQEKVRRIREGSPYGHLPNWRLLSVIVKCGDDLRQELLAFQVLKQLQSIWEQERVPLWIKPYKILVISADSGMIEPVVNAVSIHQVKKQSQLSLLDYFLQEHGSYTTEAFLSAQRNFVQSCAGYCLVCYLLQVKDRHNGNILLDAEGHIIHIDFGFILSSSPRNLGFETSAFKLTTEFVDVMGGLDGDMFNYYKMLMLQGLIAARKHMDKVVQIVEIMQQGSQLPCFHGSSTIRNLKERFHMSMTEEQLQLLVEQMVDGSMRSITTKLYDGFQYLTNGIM
Chain of Mast/stem cell growth factor receptor Kit (Homo sapiens), P10721 [L576P] (P10721 whole entry L576P): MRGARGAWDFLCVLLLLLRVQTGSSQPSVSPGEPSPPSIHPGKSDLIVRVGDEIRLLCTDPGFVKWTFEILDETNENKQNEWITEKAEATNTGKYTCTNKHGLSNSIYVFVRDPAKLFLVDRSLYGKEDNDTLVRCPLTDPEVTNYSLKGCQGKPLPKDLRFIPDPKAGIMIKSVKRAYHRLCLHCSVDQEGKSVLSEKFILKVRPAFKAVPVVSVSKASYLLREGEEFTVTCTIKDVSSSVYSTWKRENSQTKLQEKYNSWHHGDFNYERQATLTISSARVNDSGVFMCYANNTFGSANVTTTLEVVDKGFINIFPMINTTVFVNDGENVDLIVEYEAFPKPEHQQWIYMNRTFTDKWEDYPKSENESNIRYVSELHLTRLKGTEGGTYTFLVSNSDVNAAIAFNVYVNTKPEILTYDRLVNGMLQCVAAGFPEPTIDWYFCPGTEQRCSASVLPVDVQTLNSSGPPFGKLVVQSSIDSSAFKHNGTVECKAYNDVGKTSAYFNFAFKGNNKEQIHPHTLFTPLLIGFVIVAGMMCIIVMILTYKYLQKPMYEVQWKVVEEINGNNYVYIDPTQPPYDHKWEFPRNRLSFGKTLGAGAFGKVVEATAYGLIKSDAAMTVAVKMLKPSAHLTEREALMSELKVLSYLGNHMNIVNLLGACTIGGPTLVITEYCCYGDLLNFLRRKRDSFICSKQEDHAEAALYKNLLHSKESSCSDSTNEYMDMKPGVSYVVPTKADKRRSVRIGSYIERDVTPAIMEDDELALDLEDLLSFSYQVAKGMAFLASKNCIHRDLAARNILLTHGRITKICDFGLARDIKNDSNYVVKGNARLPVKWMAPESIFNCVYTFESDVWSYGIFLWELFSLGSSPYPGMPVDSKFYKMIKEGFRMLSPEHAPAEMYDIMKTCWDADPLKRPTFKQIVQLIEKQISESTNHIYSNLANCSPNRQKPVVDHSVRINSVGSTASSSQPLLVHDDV
Chain of Mast/stem cell growth factor receptor Kit (Homo sapiens), P10721 [V559D] (P10721 whole entry V559D): as the sequence (P10721 whole entry L576P) above, with V559D, P576L counted along it
Chain of Mast/stem cell growth factor receptor Kit (Homo sapiens), P10721 [A829P] (P10721 whole entry A829P): as the sequence (P10721 whole entry L576P) above, with P576L, A829P counted along it
Chain of Mast/stem cell growth factor receptor Kit (P10721 whole entry): as the sequence (P10721 whole entry L576P) above, with P576L counted along it

CCC(=O)N1CCN(c2ccc(-n3c(=O)ccc4cnc5ccc(-c6cnc7ccccc7c6)cc5c43)cc2C(F)(F)F)CC1
% of control [1]: 80%

CN(C)CCOc1ccc(-c2nc(-c3ccncc3)c(-c3ccc4c(c3)CC/C4=N\O)[nH]2)cc1
% of control [2]: 61% | % of control [3]: 93% | % of control [4]: 100% | % of control [5]: 65% | % of control [6]: 79% | % of control [7]: 75% | % of control [8]: 58% | % of control [9]: 93% | % of control [10]: 86%

C=CC(=O)Nc1cccc(C(=O)Nc2ccc(Nc3cc(-c4[nH]c(SC)nc4C)ccn3)cc2)c1
% of control ([11]; at 1 µM): 101% | % of control ([11]; at 5 µM): 79%

CN(C)CCCOc1ccc(-c2cc(NCCCn3cccn3)nc(S(C)(=O)=O)n2)cc1
dTM [12]: < 2 K

O=C(NOC[C@H](O)CO)c1ccc(F)c(F)c1Nc1ccc(I)cc1F
% of control [13]: 100%

Cc1cc([C@@H](C)Nc2ccccc2C(=O)O)c2nc(N3CCOCC3)cc(=O)n2c1 [AZD-6482]
% of control [14]: 97%

CNC(=O)Nc1ccc(-c2nc(N3CC4CCC(C3)O4)c3cnn(C4CCC5(CC4)OCCO5)c3n2)cc1
% of inhibition [15]: 4% | % of inhibition [16]: 0%

C=CC(=O)Nc1cc(-n2c(=O)ccc3cnc4ccc(-c5ccc(NS(C)(=O)=O)cc5)cc4c32)ccc1C
% of control [17]: 87%

O[C@H]1CC[C@H](Nc2ncc3nc(Nc4c(F)cc(F)cc4F)n([C@H]4CCOC4)c3n2)CC1
% of control [18]: 100%

CN(C)C/C=C/C(=O)Nc1ccc(C(=O)N2CCCC(Nc3ncc(Cl)c(-c4c[nH]c5ccccc45)n3)C2)cc1 (stereo not given)
% of control [19]: 55%
